Seven compounds from PMC2801581 (Journal of medicinal chemistry, 2009) can be followed below.

Molecules are shown by their SMILES. Read-outs that look alike come from different tables or passages of the source. Some results are limits rather than exact numbers.

As a reminder, the IC50 is the point on the concentration scale where inhibition reaches its midpoint.

Format in all cases: biochemical
One assay has as its target T1, PTP-PEST (Homo sapiens, UniProt Q05209).
T1 sequence (Q05209 2-323): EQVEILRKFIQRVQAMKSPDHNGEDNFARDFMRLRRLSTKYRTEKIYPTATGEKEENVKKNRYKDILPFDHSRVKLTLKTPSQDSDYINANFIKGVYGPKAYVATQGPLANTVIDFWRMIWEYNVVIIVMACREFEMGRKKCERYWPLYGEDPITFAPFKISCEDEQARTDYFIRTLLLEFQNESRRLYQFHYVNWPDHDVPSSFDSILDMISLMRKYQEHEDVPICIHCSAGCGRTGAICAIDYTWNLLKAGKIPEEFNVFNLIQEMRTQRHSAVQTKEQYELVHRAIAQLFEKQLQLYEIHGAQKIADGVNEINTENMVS
As to the kind of experiment: PTP-PEST inhibition assay with fluorogenic substrates. To be noted: pH 6.5.

The target of the next assay is T2, CD45 (Homo sapiens, UniProt P08575).
T2 sequence (P08575 653-912 limits assumed): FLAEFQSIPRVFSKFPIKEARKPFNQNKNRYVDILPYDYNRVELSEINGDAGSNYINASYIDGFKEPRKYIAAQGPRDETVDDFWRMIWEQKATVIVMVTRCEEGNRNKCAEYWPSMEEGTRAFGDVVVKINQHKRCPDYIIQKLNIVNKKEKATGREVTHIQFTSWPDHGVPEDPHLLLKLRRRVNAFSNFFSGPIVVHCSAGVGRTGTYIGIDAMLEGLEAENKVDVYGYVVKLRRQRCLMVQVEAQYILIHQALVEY
Briefly: CD45 counterscreen. The note with it: read-out: IC50 CD45 (DiFMUP). In general terms: A counterscreen serves to expose hits that act by an unwanted route or on another target.

A further assay has as its target T3, LYP (Homo sapiens, UniProt Q9Y2R2).
T3 sequence (Q9Y2R2 2-309): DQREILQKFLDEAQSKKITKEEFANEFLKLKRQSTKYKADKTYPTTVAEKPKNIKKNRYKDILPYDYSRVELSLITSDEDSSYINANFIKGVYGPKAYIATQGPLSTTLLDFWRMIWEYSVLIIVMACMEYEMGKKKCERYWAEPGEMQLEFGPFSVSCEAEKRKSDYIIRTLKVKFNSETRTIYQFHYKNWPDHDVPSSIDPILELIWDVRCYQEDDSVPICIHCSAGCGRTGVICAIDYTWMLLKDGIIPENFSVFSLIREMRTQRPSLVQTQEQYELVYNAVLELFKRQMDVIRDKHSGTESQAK
As to the kind of experiment: LYP inhibition assay with fluorogenic substrates. The note with it: for LYP versus PTP-PEST inhibition in comparative library screen: nominal 5 µM, DiFMUP and peptide 1; for IC50: pH 6.5; for selectivity for LYP over PTP-PEST in dose-response screens: in vitro, Table 1.

In the next assay the target is T4, HePTP (Homo sapiens, UniProt P35236).
T4 sequence (P35236 65-360): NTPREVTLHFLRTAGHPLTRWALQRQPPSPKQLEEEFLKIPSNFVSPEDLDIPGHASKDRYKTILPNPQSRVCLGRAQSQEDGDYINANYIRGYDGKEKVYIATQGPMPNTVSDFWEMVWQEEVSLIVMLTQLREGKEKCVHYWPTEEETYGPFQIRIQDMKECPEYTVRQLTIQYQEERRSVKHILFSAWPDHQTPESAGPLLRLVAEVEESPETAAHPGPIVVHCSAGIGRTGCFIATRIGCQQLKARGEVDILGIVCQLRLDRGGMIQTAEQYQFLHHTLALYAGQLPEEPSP
As to the kind of experiment: HePTP counterscreen. To be noted: read-out: IC50 HePTP (DiFMUP).

For a further assay, the target named is T5, PTP1B (Homo sapiens, UniProt P18031).
T5 sequence (P18031 3-277 limits assumed): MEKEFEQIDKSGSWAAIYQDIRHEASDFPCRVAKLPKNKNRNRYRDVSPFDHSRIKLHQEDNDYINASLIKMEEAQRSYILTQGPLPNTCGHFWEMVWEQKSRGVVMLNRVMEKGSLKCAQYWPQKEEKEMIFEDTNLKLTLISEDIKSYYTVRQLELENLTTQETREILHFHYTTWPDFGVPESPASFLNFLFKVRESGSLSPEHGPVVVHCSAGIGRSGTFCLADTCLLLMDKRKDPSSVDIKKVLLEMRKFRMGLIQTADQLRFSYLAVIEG
As to the kind of experiment: PTP1B inhibition assay with fluorogenic substrates. The note with it: for IC50: pH 7.1; for PTP1B inhibition in library screen, peptide 2 versus DiFMUP: nominal 5 µM.

The target of another assay is T6, TCPTP (Homo sapiens, UniProt P17706).
T6 sequence (P17706 5-275 limits assumed): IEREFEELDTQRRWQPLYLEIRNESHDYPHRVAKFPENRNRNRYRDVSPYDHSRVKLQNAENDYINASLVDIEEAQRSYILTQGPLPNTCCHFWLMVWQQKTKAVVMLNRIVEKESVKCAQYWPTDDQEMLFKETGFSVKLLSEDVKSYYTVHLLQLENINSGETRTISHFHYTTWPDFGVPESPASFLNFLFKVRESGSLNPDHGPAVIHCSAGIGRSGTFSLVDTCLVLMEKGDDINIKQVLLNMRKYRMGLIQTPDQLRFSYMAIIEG
As to the kind of experiment: TCPTP inhibition assay with fluorogenic substrates. To be noted: for IC50: pH 7.1.

[1] abbreviates: read-out: IC50 PEST (peptide 1).
[2] abbreviates: read-out: IC50 LYP (DiFMUP), substrate DiFMUP 1.5 µM.
Where [3] appears, read: read-out: IC50 LYP (peptide 1), substrate peptide 1 10 µM.
The mark [4] stands for this setting: read-out: IC50 PEST (DiFMUP), substrate DiFMUP 1.5 µM.
Where [5] appears, read: read-out: IC50 PEST (peptide 1), substrate peptide 1 10 µM.
Setting [6] is: read-out: IC50 PTP1B (DiFMUP), substrate DiFMUP 1.5 µM.
Where [7] appears, read: read-out: IC50 PTP1B (peptide 2), substrate peptide 2 60 µM.
[8] abbreviates: read-out: IC50 TCPTP (DiFMUP), substrate DiFMUP 1.5 µM.
Setting [9] is: read-out: IC50 TCPTP (peptide 2), substrate peptide 2 60 µM.

On to `O=S(=O)(O)c1cccc([P+]([Au-][Cl])(c2ccccc2)c2ccccc2)c1` [Compound 12, 3-(Diphenylphosphino)benzenesulfonic acid-Au(I)-Cl], for which the IC50 on PTP-PEST (read-out: IC50 PEST (DiFMUP)) was 70 ± 2 µM; on PTP-PEST (setting [1]), 4 ± 0.2 µM; on CD45, greater than 70 µM; on LYP (setting [2]) it was 2 ± 0.1 µM; at LYP (setting [3]), 1.9 ± 0.2 µM; at HePTP, 40 ± 1 µM. The “LYP versus PTP-PEST inhibition in comparative library screen” value (from here on “LYP versus PTP-PEST inhibition”) at LYP was “appear LYP-selective when DiFMUP is used in the assay, but not when the peptide is used”. The “selectivity for LYP over PTP-PEST” value is reported as 35 fold at LYP (with DiFMUP as substrate) and 2 fold on LYP (with peptide 1 as substrate).
`CP(C)c1ccccc1.[Cl][Au]` [Compound 13, Dimethylphenylphosphine-Au(I)-Cl]: the IC50 on PTP-PEST (setting [4]) was 70 ± 2 µM; at PTP-PEST (setting [5]), 30 ± 2 µM; at CD45 (substrate DiFMUP) it was greater than 100 µM; on LYP (setting [2]), 3.5 ± 0.3 µM; on LYP (setting [3]), 2 ± 0.3 µM; on HePTP (substrate DiFMUP), greater than 50 µM. Moreover, on LYP, the “selectivity for LYP over PTP-PEST in dose-response screens” value was “selective for LYP over the ~ 70% identical PTP-PEST”. The “LYP versus PTP-PEST inhibition” value on LYP is “more potent inhibitors of LYP than PTP-PEST regardless of the substrate used”.
Regarding `O=S(=O)(O)c1ccc([P+]([Au-][Cl])(c2ccccc2)c2ccc(S(=O)(=O)O)cc2)cc1` [Compound 18, 4,4′-(Phenylphosphinidene)bis(benzenesulfonic acid)-Au(I)-Cl], the “selectivity between PTP1B and TCPTP in dose-response screens” value (shortened to “selectivity between PTP1B and TCPTP”) at PTP1B is “no significant selectivity with DiFMUP”. The IC50 was 16 ± 1 µM on PTP1B (read-out: IC50 PTP1B (DiFMUP)); 15 ± 1 µM at PTP1B (read-out: IC50 PTP1B (peptide 2)); 39 ± 1 µM at PTP-PEST (read-out: IC50 PEST (DiFMUP)); 10 ± 2 µM on PTP-PEST (setting [1]); 26 ± 1 µM at CD45; 2 ± 0.1 µM at LYP (setting [2]). Also, the IC50 at LYP (setting [3]) was found to be 0.85 ± 0.05 µM; at HePTP it was 16 ± 2 µM; on TCPTP (read-out: IC50 TCPTP (DiFMUP)) it was 16 ± 1 µM; on TCPTP (read-out: IC50 TCPTP (peptide 2)), 7.5 ± 0.3 µM. For the same compound, at LYP, the “selectivity for LYP over PTP-PEST in dose-response screens” value was “selective for LYP over the ~ 70% identical PTP-PEST”. In addition, on TCPTP, the “TCPTP versus PTP1B inhibition in comparative library screen” value is “slightly TCPTP selective with peptide 2”. Besides, the “selectivity for TCPTP (over PTP1B)” value at TCPTP is reported as “approximately 2 fold”.
With `[Cl][Au][PH](c1ccco1)(c1ccco1)c1ccco1` [Compound 19, Tri-2-furylphosphine-Au(I)-Cl], the “selectivity between PTP1B and TCPTP” value at PTP1B (Table 2) is on record as “selective for PTP1B with both substrates”. Besides, on PTP1B, the “PTP1B inhibition in library screen, peptide 2 versus DiFMUP” value was “inhibit PTP1B better with peptide 2 than with DiFMUP”. The IC50 at PTP1B (setting [6]) stood at 0.33 ± 0.02 µM; on PTP1B (setting [7]), 0.2 ± 0.02 µM; at TCPTP (setting [8]) it was 2.4 ± 0.2 µM; on TCPTP (setting [9]) it was 2.2 ± 0.3 µM.
`[Cl][Au][PH](C1CCCCC1)(C1CCCCC1)C1CCCCC1` [Compound 25, Tricyclohexylphosphine-Au(I)-Cl]: the IC50 is 45 ± 1 µM on PTP-PEST (setting [4]); greater than 80 µM on PTP-PEST (setting [5]); greater than 70 µM at CD45 (substrate DiFMUP); 25 ± 1 µM on LYP (setting [2]); 61 ± 1 µM at LYP (setting [3]); 20 ± 2 µM on HePTP (substrate DiFMUP). In addition, the “LYP versus PTP-PEST inhibition” value on LYP is “appear LYP-selective when DiFMUP is used in the assay, but not when the peptide is used”.
Regarding `N#CCC[P+](CCC#N)([Au-][Cl])c1ccccc1` [Compound 28, Bis(2-cyanoethyl)phenylphosphine-Au(I)-Cl], the IC50 on PTP-PEST (setting [4]) was greater than 80 µM; on PTP-PEST (setting [5]), 33 ± 1 µM; on CD45 (substrate DiFMUP) it was greater than 70 µM; at LYP (setting [2]), 3.5 ± 0.1 µM; at LYP (setting [3]), 2.5 ± 0.6 µM; on HePTP (substrate DiFMUP), greater than 50 µM. Moreover, the “selectivity for LYP over PTP-PEST in dose-response screens” value at LYP is on record as “selective for LYP over the ~ 70% identical PTP-PEST”.
Take `Fc1c(F)c(F)c([PH]([Au][Cl])(c2c(F)c(F)c(F)c(F)c2F)c2c(F)c(F)c(F)c(F)c2F)c(F)c1F` [Compound 40]: the “selectivity between PTP1B and TCPTP” value on PTP1B (Table 2) was “no significant selectivity with DiFMUP”. In addition, the “PTP1B inhibition in library screen, peptide 2 versus DiFMUP” value on PTP1B is reported as “the reverse seems to be true”. Further, the IC50 came to 7.5 ± 0.2 µM at PTP1B (setting [6]), 5.4 ± 0.3 µM at PTP1B (setting [7]), 6.7 ± 0.2 µM at TCPTP (setting [8]) and 57 ± 1 µM at TCPTP (setting [9]). Further, the “selectivity for PTP1B (over TCPTP)” value on PTP1B (with peptide 2 as substrate) is given as roughly 10 fold.
